Assay: Human HepG2 cell viability assay in 384 well format
Type: toxicity, cell-based
Parameters: dose 125 nL, time 70.5 hour; concentration not given beside the values
Conditions: HepG2 cells, read-out: Inhibition

Compound	cytotoxicity at 70.5 h [%]
CCc1nccc(CN2CCC(CNC(=O)c3occc3C)C2)n1 (stereo not given)	-5.76
CCn1nc(C)cc1S(=O)(=O)N1CCC2(CC(=O)NC2=O)C1 (stereo not given)	-5.01
CCc1cc(CN(Cc2cccnc2)C2CN3CCC2CC3)on1 (stereo not given)	24.6
CCn1cnnc1CN(C)c1nccc(C2CCCC2)n1	-7.13
Cc1nc(CCCNC(=O)c2coc(CN3CCOCC3)c2)sc1C	-0.625
CC(=O)c1cc(CN2C[C@@H](CN3CCC(O)CC3)[C@@H](CO)C2)n(C)c1	0.0676
O=C(c1cc(COc2ccc3c(c2)OCO3)[nH]n1)N1CCCO1	-2.52
Cc1ccccc1OC1CCN(C(=O)CNC(=O)N(C)C)CC1	-15.2
O=C1NCCCc2[nH]c(-c3nc(C4CC4)no3)nc21	-3.92
COc1nc2ccccc2cc1CN1CCC(CNS(C)(=O)=O)C1 (stereo not given)	0.512
CC(C)CN1CCCn2nc(CNC(=O)Cc3cccc(O)c3)cc2C1	-9.37
Cc1cc2[nH]cc(C(=O)N3CCCCC3c3ccc(F)cc3)c(=O)n2n1 (stereo not given)	-3.07
CCc1ccc(C2c3nc[nH]c3CCN2Cc2nccn2CC)nc1 (stereo not given)	33.1
COCCc1noc(CN2C(=O)OC[C@@H]2C(C)C)n1	2.12
CCCc1cc(=O)[nH]c(-c2cccc(CN3CCN4CCCC4C3)c2)n1 (stereo not given)	-6.97
O=C(NCC(F)F)c1ccc(S(=O)(=O)NCCc2cn[nH]c2)cc1	-8.61
COc1ccccc1N1CC(NC(=O)c2cc(C(C)C)nn2C)CC1=O (stereo not given)	12.6
Cc1ccccc1N1CCN(C(=O)CCc2nncn2C)C(C)C1 (stereo not given)	-1.67
CCN(CCc1nc2cc(C)ccc2[nH]1)C(=O)[C@@H](N)COC	10
NCC(=O)N1CCCCC1c1ccc(F)cc1 (stereo not given)	-2.07
NCCn1cc(C(=O)N2CCNC(=O)C2c2cccc(F)c2)nn1 (stereo not given)	-11.9
CCc1[nH]c2c(CNc3cncc(C(=O)N(C)C)n3)cc(C)cc2c1C	27.8
CNc1nc(C(=O)N2CCN(c3cc(C)nc(C)c3)CC2)cs1	-9.69

Compound	cytotoxicity at 70.5 h [%]
COc1ccc([C@@H]2CN(C(=O)Cc3cccs3)C[C@H]2NC(C)=O)cc1	-4.36
NC1CCN(C2CCN(c3ccc(-c4ccco4)cc3)CC2)CC1	-12
O=C(NCc1cc2ccccc2s1)c1cc(CN2CCCC(O)C2)on1 (stereo not given)	-3.19
O=C(CCC(F)(F)F)N1CCCC(CO)(CC2CC2)C1 (stereo not given)	-8.1
Cc1ccc(-c2ccnc(NC(C)c3n[nH]c(C)n3)n2)c(C)n1 (stereo not given)	-9.42
O=C1NC(C(=O)NCc2cccnc2Oc2ccc(F)cc2F)CO1 (stereo not given)	-18.3
CCC(CC)CN1CCCn2nc(CNC(=O)COC)cc2C1	-10.4
O=C(Nc1ccccc1)c1cc2n(n1)CCCN(C(=O)c1ccc[nH]1)C2	14.9
O=C(NCCc1c[nH]cn1)c1ccc(S(=O)(=O)NC2CCOC2)cc1 (stereo not given)	-0.712
CC(C)(C)n1cc(C2=CCN(CCc3ccccn3)CC2)cn1	-5.94
CN(Cc1noc2c1CCCC2)C(=O)CN1C(=O)COc2ccccc21	-6.93
Cc1cc2cc(C(=O)N3CCN(CCO)[C@@H]4CS(=O)(=O)C[C@@H]43)ccc2o1	19.6
OCCNc1cc(-c2nccnc2N2CCCC2)c2cc[nH]c2n1	34
CN(c1ncccc1CNCc1ncc[nH]1)C1CCCCC1	-13.1
Cc1ccc(C(C(=O)N2CC(c3ccccn3)C2)N(C)C)cc1 (stereo not given)	13
COCCN1C(=O)[C@H]2CC[C@@H]1CN(C(=O)Cc1ccc(O)c(Cl)c1)C2	16.7
Cc1nn2c(NCC(=O)NC3CC3)cc(-c3ccccc3)nc2c1C	-2.36
O=C(c1cc[nH]n1)N1CCc2ncnc(N3CCSCC3)c2CC1	10.4
Cc1ccc(Cl)c(C(C(=O)O)N(C)Cc2cnn(C)c2)c1 (stereo not given)	5.66
Cc1ccccc1-n1cc(C2=CCN(CCn3cc[nH]c3=O)CC2)cn1	-6.71
Cn1ccc2c(-c3ccc(NC4CC4)nn3)ccnc21	-5.5
c1ccc(Oc2ncccc2CNCc2ccccn2)cc1	-4.5
CSc1ccc(-n2ccnc2-c2cc3n(n2)CCNC3)cc1	25.5

Compound	cytotoxicity at 70.5 h [%]
Cc1nn(C)cc1Cn1c(=O)cnc2ccccc21	-19.1
CN(CCO)Cc1nnc(C2CCN(C(=O)c3ccccn3)CC2)n1C	1.55
CN(C)CCNc1cc(-c2ccc[nH]c2=O)c2cc[nH]c2n1	-5.94
CO[C@H]1CN(C(C)C)C[C@@H]1NC(=O)c1cc(-c2ccccc2F)n[nH]1	-6.15
COc1cc(C)sc1C(=O)N1CCCCC1c1ccccn1 (stereo not given)	-16.5
O=C(c1cccnc1N1CCOC(c2ccc(Cl)cc2)C1)N1CCCC1 (stereo not given)	-5.24
CCc1cnc(C)nc1NCC(O)CN1CCCCCC1 (stereo not given)	-4.26
O=C(c1cc(C2CC2)no1)N1C[C@H]2CC[C@@H]1CN(Cc1ccccn1)C2	-14.9
CC(=O)c1ccc(N2CCC3(CCC(=O)N(C4CC4)C3)CC2)nc1	-1.87
O=C1CC(c2ccc(CO)o2)c2cnn(Cc3ccco3)c2N1 (stereo not given)	-7.94
Cc1nc(C)n(CCNC(=O)C(C)n2ccnc2C(C)C)n1 (stereo not given)	-0.492
CCN(CC)C(=O)[C@@H]1C[C@H](NC(=O)c2cccn2C(C)C)CN1C	-9.19
CCC(Nc1nccc(C2CCCC2)n1)c1ccccn1 (stereo not given)	-3.14
O[C@]12CCNC[C@H]1CN(c1ncccc1Cl)CC2	-16.6
CSC(C)C(=O)N1CCC(Oc2cc(C)ccc2F)(C(=O)O)CC1 (stereo not given)	-7.76
Cc1nc(C)n(CC(C)C(=O)N2CCCN(C3CCCC3)CC2)n1 (stereo not given)	-6.07
O=C(c1cccc(Cl)c1F)N1CCOC2(CNCCOC2)C1 (stereo not given)	32.2
Cc1ccc2cc(CN(C)Cc3nccs3)c(=O)[nH]c2c1	-11.3
FC(F)(F)CCc1ncnn1-c1ccc2c(c1)OCO2	-7.77
Cc1[nH]c(=O)c(C#N)cc1C(=O)N1C[C@@H](CN2CCCC2)C[C@H](CO)C1	-7.24
COc1ccc(CCN2CCCC(CN(C)Cc3ccc(C)o3)C2)cc1 (stereo not given)	-5.02
Cc1ccc2c(ccn2CCC(=O)O)c1	-4.94
Cc1cc(C(=O)N2CCC(c3nccn3Cc3ccncc3)CC2)no1	1.65

Compound	cytotoxicity at 70.5 h [%]
CS(=O)(=O)N1C[C@@H]2CC[C@H](C1)N(Cc1cscn1)C2=O	-11.4
Cc1ccccc1N1CCN(C(=O)c2ccc[nH]2)C(C)C1 (stereo not given)	-2.71
CCCn1nccc1C(=O)N1CCCN(CCCc2ccccc2)CC1	-7.2
COc1ccc(C(=O)C2CCCN(Cc3ccc(C)o3)C2)c(OC)c1 (stereo not given)	-4.07
O=C(c1cc(COc2ccc3c(c2)OCO3)[nH]n1)N1CC=CC1CO (stereo not given)	-8.31
Cc1cnccc1N1CCCN(C(=O)CCCc2cn[nH]c2)CC1	2.95
Cc1nccnc1N1CCC2(CCCN(C3CCOCC3)C2=O)C1 (stereo not given)	7.43
COc1cccc(N2CCN(Cc3ccc(NC(C)=O)cc3)CC2=O)c1	9.59
Cc1c[nH]c(CN(C)C(=O)c2cccc(CCC(C)(C)O)c2)n1	-5.47
O=C(CSCC1CC1)N1CCCC(c2nccn2Cc2ccncc2)C1 (stereo not given)	-9.73
Cc1scc(C(=O)N2CCC3(CC(=O)NC3=O)C2)c1-c1ccccc1 (stereo not given)	-11
Cc1cccnc1CNCC1(O)CCCN(Cc2ccc(F)cc2)C1=O (stereo not given)	23.1
Cc1c(CN2CCOCC2)c(O)n(CCO)c(=O)c1C#N	41
Cc1nn(CC(=O)n2cccn2)c(C)c1I	15.6
CCc1noc(-c2cccc(C(=O)O)c2)n1	23.7
Cc1cc(SCC(=O)O)nc2nn(CC(F)F)c(C)c12	-1.44
CCSc1ncc(Cl)c(C(=O)NC(CCSC)C(=O)O)n1 (stereo not given)	-7.9
CSc1ncc(Cl)c(C(=O)NC(Cc2ccccc2)C(=O)O)n1 (stereo not given)	15
N#CCCn1nc(C(F)(F)F)c2c1CCCC2	-6.63
COc1ccc(-c2cc(N)on2)cc1	13.8
CC(C)c1cc(COCCC(=O)O)no1	-6.18
Cc1c(NC(=O)c2noc3c2CCCC3)cnn1C	16.1
CCC(NC(=O)c1nn(C)cc1C(=O)O)c1ccccc1 (stereo not given)	-15.2

Compound	cytotoxicity at 70.5 h [%]
CCC(NC(=O)c1nn(C)cc1C(=O)O)c1ccc(C)cc1 (stereo not given)	-5.71
CC1=C(C#N)C(=O)NC(=O)/C1=C\c1c(C)nn(-c2ccc(Cl)cc2)c1O	-6.07
COc1ccc(N(c2ccc(C)cc2)c2ccc(C(=O)O)s2)cc1	-0.995
Clc1ccc(C2NCCc3cc4c(cc32)OCCO4)cc1 (stereo not given)	32.9
CCc1ccc(C2NCCc3cc4c(cc32)OCCO4)cc1 (stereo not given)	8.93
CNCc1cc(F)ccc1Oc1ccc(F)cc1	2.53
COc1ccc(C2=CNC(C(F)(F)F)=CC2N)cc1 (stereo not given)	-0.00247
CC(C)c1cc(CN2CCC(N)CC2)no1	-6.06
Cc1nn(C)cc1-c1cc(C(F)F)n2nc(CCC(=O)O)nc2n1	-0.99
CCOCn1cc(NC(=O)C2CCN(S(C)(=O)=O)CC2)cn1	-2.16
CS(=O)(=O)N1CCCC(C(=O)Nc2cnn(Cc3ccc(Cl)cc3)c2)C1 (stereo not given)	0.541
CCc1nc(C)cn1C(=O)Nc1ccccc1	2.98
CCc1nc(C)cn1C(=O)Nc1ccc(F)cc1	5.48
O=C(O)Cc1nc2nccc(-c3ccc(F)cc3)n2n1	17.4
N#Cc1cc2c(nc1O)CCCCC2	-2.17
Cn1c(=O)c2cc(C(=O)NCCOc3ccccc3)ccc2n(C)c1=O	24.3
Cn1c(=O)c2cc(C(=O)NCc3ccccn3)ccc2n(C)c1=O	-4.37
CC(CC#N)n1ccc(C(F)(F)F)n1 (stereo not given)	-0.316
CCC(CC#N)n1ccc(C(F)(F)F)n1 (stereo not given)	22.2
Cc1nn(C)cc1-c1cc(C(F)(F)F)n(CCCN)n1	-0.484
Cc1cc(C(F)(F)F)nn1CCCNC(=O)C1CCCO1 (stereo not given)	16.3
COC(=O)N1CC(C)=C(C)CN1C(=O)Nc1cccc(Cl)c1	0.501
CNCc1cc(F)ccc1Oc1ccc(Cl)cc1	2.13
